In patent publication US20030060438A1, “Oligonucleotides and other modulators of the NK-1 receptor pathway and therapeutic uses thereof” (priority 2000, published 2003):

Columns and labels:
Format in all cases: in vivo, rat
[1] = system: NK-1 receptor; experiment: Zymosan model of inflammatory bowel disease, Evans blue plasma extravasation of the colon; conditions: 300 micro grams/kg, Q12 h, intraperitoneal for 6 days prior to rectal zymosan; Evans blue three hours after zymosan
Experimental: Inflammatory bowel disease (IBD) is a generic term used to describe major clinical entities including Crohn's disease and ulcerative colitis. IBD was simulated by rectal administration of zymosan, a complement-activating substance. Antisense (AS) oligonucleotide (300 micro grams/kg, Q12 h, intraperitoneal) or saline was administered for 6 days prior to zymosan administration. Three hours after administration of zymosan, rats are injected with Evans blue dye which enables the assessment of plasma extravasation of the colon (degree of inflammation). […] Statistical analysis was performed using an unpaired t-test.

[2] = system: NK-1 receptor; experiment: CFA ankle joint arthritis model, ankle circumference, systemic oligonucleotide; conditions: 300 micro grams/kg, Q12 h, intraperitoneal from 2 days prior to CFA
Experimental: Complete Freund's Adjuvant (CFA) injection (13.6 micro grams/25 microlitres) into the ankle joint of the rat produces two responses, an inflammatory response that begins within 24 hours and lasts approximately one week, and a later inflammatory response combined with symptoms modeling arthritis. Antisense (AS) oligonucleotide (300 micro grams/kg, Q12 h, intraperitoneal) or saline was administered for 2 days prior to CFA injection and throughout the time course of testing. In control animals CFA induces two phases of response as assessed by ankle circumference; the first is maximal at 48 h after injection and the second at day 18. […] Statistical analysis was performed using a two way ANOVA and post hoc analysis using the tukey's test.

[3] = system: NK-1 receptor; experiment: Formalin test, systemic (intraperitoneal) oligonucleotide; conditions: 300 micro grams/kg, Q12 h, 6 days prior to testing, vs saline
Experimental: The formalin test produces a biphasic nociceptive behavior that lasts up to one hour that is believed to represent a tonic, persistent pain. The index of nociceptive behavior is assessed based a weighted pain intensity scale, where the animal is given a value of 0 for showing no signs of favoring of the injected paw, 1—favoring of hind paw such that it is resting lightly on the floor, 2—elevation of hind paw, 3—licking or vigorously shaking the hind paw. The numerical ratings were calculated by multiplying the amount of time the rats spent in each category by the weighted factor indicated above for each 5 minute interval over a one hour time period. This was expressed by the following formula: (time spent in category 0*0+time spent in category 1*1+time spent in category 2*2+time spent in category 3*3)/300 seconds. Antisense (AS) oligonucleotide (300 micro grams/kg, Q12 h, intraperitoneal) or saline was administered for 6 days prior to testing. […] Statistical analysis was performed by a two way ANOVA with time and treatment as independent measures. Time: F=9.966, p<0.001, Treatment: F=31.85, p<0.001.

[4] = system: NK-1 receptor; experiment: CFA arthritis model, collagen breakdown products in plasma, systemic oligonucleotide; conditions: days 3 and 18 following CFA injection; 300 micro grams/kg, Q12 h, intraperitoneal
Experimental: Complete Freund's Adjuvant (CFA) was injected into the ankle joint of the rat and the levels of collagen breakdown products were assessed on days 3 and 18 following CFA injection. This was accomplished by measuring collagen degradation in the plasma of blood samples taken from the tail vein of rats while lightly anesthetized with halothane anesthesia. Antisense (AS) oligonucleotide (300 micro grams/kg, Q12 h, intraperitoneal) or saline was administered for 2 days prior to CFA injection and for the subsequent 18 days. […] (Pervious experiments have identified that the levels of collagen breakdown products are maximal at day 3-5 after CFA injection). Statistical analysis was performed using an unpaired t-test.

[5] = system: NK-1 receptor; experiment: CFA ankle joint arthritis model, ankle circumference, intrathecal oligonucleotide; conditions: intrathecal 1 micro grams/microlitres/h from 48 h prior to CFA injection; vs ACSF or MIS
Experimental: Complete Freund's Adjuvant (CFA) injection into the ankle joint of the rat produces two responses, an inflammatory response that begins within 24 hours and lasts approximately one week, and a later inflammatory response combined with symptoms modelling arthritis. Oligonucleotides or ASCF control (artificial cerebral spinal fluid) was administered for 48 h prior to CFA injection and continuously for the testing days (1 micro grams/microlitres/h) via Alzet® minipumps attached to intrathecal catheters for spinal delivery. […] Statistical analysis was performed using a one way ANOVA and post hoc analysis using the Dunnett's test.

[6] = system: NK-1 receptor; experiment: Capsaicin test, nociceptive behaviour after plantar injection, intrathecal oligonucleotide; conditions: intrathecal continuous infusion 2 micro grams/microlitres/h for 7 days; vs ACSF or MIS
Source text: The effect of intrathecal administration of NK-1 receptor antisense oligonucleotide on the nociceptive responses induced by capsaicin is shown in FIG. 2. This test consists of injecting a dilute solution of the active ingredient of hot peppers, capsaicin subcutaneously in the plantar surface of the rat hind paw. Capsaicin, C18H27NO3, is a known painful stimulus, especially of c-fibers, which are associated with substance P.
Capsaicin produces nociceptive (pain) behaviors over a period of about 5 minutes. The index of nociceptive behavior was assessed based a weighted pain intensity scale, where the animal is given a value of 0 for showing no signs of favoring of the injected paw, 1—favoring of hind paw such that it is resting lightly on the floor, 2—elevation of hind paw, 3—licking or vigorously shaking the hind paw. The numerical ratings were calculated by multiplying the amount of time the rats spent in each category by the weighted factor indicated above. This was expressed by the following formula: (time spent in category 0*0+time spent in category 1*1+time spent in category 2*2+time spent in category 3*3)/180 seconds. Oligonucleotides or ASCF control (artificial cerebral spinal fluid) were administered for 7 days prior to testing by continuous infusion (2 micro grams/microlitres/h) via Alzet™ minipumps attached to intrathecal catheters for spinal delivery. […]

[7] = system: NK-1 receptor; experiment: Mechanical response thresholds in naive rats, intrathecal oligonucleotide; conditions: no surgery; intrathecal 1 micro grams/microlitres/h, prolonged administration
Experimental: The effect of intrathecal administration of NK-1 receptor antisense oligonucleotide on mechanical response thresholds in naive rats is shown in FIG. 6.
Oligonucleotides or ASCF control (artificial cerebral spinal fluid) were administered for 2 days prior to surgery, and throughout the time course of testing, by continuous infusion (1 micro grams/microlitres/h) via Alzet® minipumps attached to intrathecal catheters for spinal delivery.

5′gac gtt atc cat ttt ggg g3′ (antisense GACGTTATCCATTTTGGGG; listed as DNA, chemistry not fully specified) [NK-1 receptor antisense oligonucleotide used in all experiments]
zymosan-induced plasma extravasation of the colon [1]: significantly lower
magnitude of inflammation, measured as ankle circumference, first phase ([2]; first phase maximal at 48 h): less
magnitude of inflammation, measured as ankle circumference, second phase ([2]; second phase maximal at day 18): less
formalin-induced nociceptive scores [3]: nociceptive scores are less
collagen breakdown products in plasma compared to saline controls [4]: significant attenuation
magnitude of inflammation, measured as ankle circumference [5]: less
capsaicin-induced nociceptive behavior (weighted pain score) [6]: less time spent in nociceptive behavior
mechanical response (withdrawal) threshold of either hind limb in naive rats [7]: had no effect
